In PMC12040169 (PLOS Biology, 2025) one finds viability data, which are given here for 79 compounds.

This data set in a line: in vitro. The settings on record: human, hela cells, % viability.

Turning to `CN1CCN(CCC(=O)N/N=C/c2ccc3c(c2)OCO3)CC1` [CBK261498], the viability at 28.5 h, 10 µM is 91.5%.

Turning to `CC(C)c1nc(C(=O)NCC2CCCN(c3ncccn3)C2)cs1` (stereo not shown) [CBK304351], the viability at 28.5 h, 10 µM was 100%.

Consider `CC(C)(C)C1CCC(=NNC(=O)c2ccc(CN3CCOCC3)cc2)CC1` (stereo not shown) [CBK018812], for which the viability at 28.5 h, 10 µM turned out to be 97.9%.

As to `CCOc1cccc2sc(NC(=O)CC)nc12` [CBK287307], the viability at 28.5 h, 10 µM was determined as 86.5%.

For the compound `CC[C@H]1C[N@@]2CC[C@H]1C[C@@H]2CNS(=O)(=O)c1cccc2cccnc12` [CBK288747], the viability at 28.5 h, 10 µM is 90.6%.

With `c1nc2nc[nH]c(N3CCN(Cc4ccc5c(c4)OCO5)CC3)c-2n1` [CBK287283], the viability at 28.5 h, 10 µM was 83.5%.

Turning to `O=C(NC1CCCC1)c1ccc(-c2cnc3[nH]c(=O)n(Cc4ccc(Cl)cc4)c3n2)cc1` [CBK065039], the viability at 28.5 h, 10 µM was found to be 94.7%.

As to `COc1cncc(-c2cc(Nc3ccc(NS(=O)(=O)c4ccc(C)cc4)cc3)ncn2)c1` [CBK090988], the viability at 28.5 h, 10 µM was 94.1%.

Consider `Cc1ccc(C)c(Nc2nc3nonc3nc2N2CCOCC2)c1` [CBK262491], for which the viability at 28.5 h, 10 µM was 88.8%.

As to `CCN(CC)CCOC(=O)NS(=O)(=O)c1ccc(Cl)cc1` [CBK288510], the viability at 28.5 h, 10 µM was found to be 97.6%.

On to `Cc1oc(NC(=O)CN2CCN(c3ccc(F)cc3)CC2)c(C#N)c1C` [CBK305907], for which the viability at 28.5 h, 10 µM worked out at 86.7%.

Turning to `COc1cc(/C=N/c2ccc(/N=C/c3cc(Br)c(O)c(OC)c3)cc2)cc(Br)c1O` [CBK261843], the viability at 28.5 h, 10 µM was 82.7%.

Regarding `CCOC(=O)/C(C#N)=C(\O)c1ccc(N2C(=O)c3ccc(C(=O)O)cc3C2=O)cc1` [CBK262683], the viability at 28.5 h, 10 µM is 91.8%.

As to `COc1cccc(CN2CCC3(C/C=C/COc4ccccc4C(=O)NCCNC3=O)CC2)c1F` [CBK292025], the viability at 28.5 h, 10 µM was 108%.

`Cc1cccc(C(=O)Nc2cccc(OCC(=O)O)c2)c1` [CBK268599]: the viability at 28.5 h, 10 µM is 114%.

Consider `O=C(O)C(Cc1cnc[nH]1)N1C(=O)c2ccccc2C1=O` (stereo not shown) [CBK217815], for which the viability at 28.5 h, 10 µM is 110%.

As for `NNS(=O)(=O)c1ccc(Oc2ccc([N+](=O)[O-])cc2)cc1` [CBK261669], the viability at 28.5 h, 10 µM was found to be 95.9%.

Consider `Oc1ccc(Br)cc1/C=N/c1ccc(-c2cc(-c3ccc(/N=C/c4cc(Br)ccc4O)cc3)ncn2)cc1` [CBK261630], for which the viability at 28.5 h, 10 µM came to 115%.

For the compound `CCCc1nc2oc3c(-c4ccccc4)c(C(=O)O)c(C)nc3c2c2c1COC(C)(C)C2` [CBK264044], the viability at 28.5 h, 10 µM amounted to 89.2%.

For `COc1ccc(-c2nc(COC(=O)c3cccnc3N)cs2)cc1OC` [CBK296741], the viability at 28.5 h, 10 µM came out at 82.6%.

As to `COc1ccc(-c2csc(NS(=O)(=O)c3c(C)cc(Cl)cc3Cl)n2)cc1` [CBK000814], the viability at 28.5 h, 10 µM turned out to be 104%.

On to `Cc1cc(C)n(CCCNC(=O)Cc2csc(N3CCCC3=O)n2)n1` [CBK305708], for which the viability at 28.5 h, 10 µM is 94.6%.

On to `COc1cccc(Oc2nccnc2/C=C/c2ccccc2)c1` [CBK106877], for which the viability at 28.5 h, 10 µM stood at 107%.

As to `CCCc1ccc(S(=O)(=O)Nc2ccccc2C(=O)O)cc1` [CBK042366], the viability at 28.5 h, 10 µM was found to be 72.4%.

For `COc1ccc(Sc2cccc(C(F)(F)F)n2)cc1OC` [CBK093769], the viability at 28.5 h, 10 µM came to 94%.

On to `O=C(NC(c1ccccc1)c1ccccc1)N1CCN(c2ccccc2)CC1` [CBK155177], for which the viability at 28.5 h, 10 µM was determined as 90.7%.

With `CC1=C[C@@H](CNS(C)(=O)=O)[C@H](C(C)C)C[C@H]1CC(=O)Nc1ccccn1` [CBK289208], the viability at 28.5 h, 10 µM turned out to be 89.3%.

Turning to `COc1ccc(C(=O)O)cc1S(=O)(=O)Nc1cccc(C=Cc2ccccn2)c1` [CBK297763], the viability at 28.5 h, 10 µM stood at 110%.

Consider `CC(=O)Nc1ccc(-c2ccc(C(=O)NCc3ccc(S(C)(=O)=O)cc3)cn2)cc1` [CBK158860], for which the viability at 28.5 h, 10 µM amounted to 92.1%.

On to `CCS(=O)(=O)Nc1cc(Cl)ccc1C` [CBK111350], for which the viability at 28.5 h, 10 µM came to 79.1%.

Consider `c1ccc(Oc2ccc(Nc3cccc(-c4ccc(N5CCOCC5)cc4)n3)cc2)cc1` [CBK036986], for which the viability at 28.5 h, 10 µM worked out at 95.4%.

As to `O=[N+]([O-])c1cnc(NS(=O)(=O)c2ccccc2Br)s1` [CBK067539], the viability at 28.5 h, 10 µM turned out to be 96.2%.

`COc1ccc(N2CCN(c3cncc(-c4cc(OC)c(OC)c(OC)c4)n3)CC2)cc1OC` [CBK037988]: the viability at 28.5 h, 10 µM was 99.9%.

As for `CC1CCCN(C(=O)C2C3CCC4(CC(=O)c5ccccc5O4)C32)C1` (stereo not shown) [CBK284932], the viability at 28.5 h, 10 µM stood at 89.8%.

With `Cc1oc(C(C)(C)C)cc1C(=O)NCCNc1c(Cl)cccc1[N+](=O)[O-]` [CBK265032], the viability at 28.5 h, 10 µM came to 119%.

Consider `CC(C)N1CC[C@H]2CN(C(=O)CCC(=O)O)CC[C@H]2CC1=O` [CBK288789], for which the viability at 28.5 h, 10 µM amounted to 87.8%.

On to `O=S(=O)(NCC(O)Cn1c2ccc(Cl)cc2c2cc(Cl)ccc21)c1ccccc1` (stereo not shown) [CBK262542], for which the viability at 28.5 h, 10 µM was 88.6%.

Turning to `Nc1c(-c2ccsc2)cnc2cccnc12` [CBK081208], the viability at 28.5 h, 10 µM turned out to be 87.8%.

Consider `O=C(O)CCc1ccc(S(=O)(=O)N2CCOCC2)cc1` [CBK287224], for which the viability at 28.5 h, 10 µM came out at 90.1%.

Consider `NS(=O)(=O)c1ccc(CCNC2CC(=O)N(Cc3ccccc3)C2=O)cc1` (stereo not shown) [CBK267439], for which the viability at 28.5 h, 10 µM stood at 90.5%.

As for `CC(C)NC(=O)N1Cc2nc[nH]c2C[C@H]1c1nc(-c2ccccc2)no1` [CBK288996], the viability at 28.5 h, 10 µM was 83%.

Take `Cc1ccc([N+](=O)[O-])cc1NC(=O)CN(Cc1ccc(Cl)cc1)S(C)(=O)=O` [CBK267981]: the viability at 28.5 h, 10 µM is 87.8%.

Turning to `O=C(CCC(=O)Nc1ccccc1)N/N=C/c1ccco1` [CBK261968], the viability at 28.5 h, 10 µM came to 108%.

Regarding `C=CCNc1nccnc1-c1ccccc1OC` [CBK036831], the viability at 28.5 h, 10 µM was determined as 106%.

As for `O=C(CSc1nnc(-c2cccnc2)n1-c1ccc(Br)cc1)Nc1cc(C(F)(F)F)ccc1Cl` [CBK266099], the viability at 28.5 h, 10 µM came to 96.5%.

With `Cc1noc(C(C)C)c1C(=O)NC(C)c1cccc(Br)c1` (stereo not shown) [CBK296618], the viability at 28.5 h, 10 µM is 92.8%.

Turning to `Cc1ccc2oc([C@H]3CN(C(=O)C(C)(C)NC(=O)OC(C)(C)C)C[C@@H]3C(=O)O)cc2c1` [CBK001600], the viability at 28.5 h, 10 µM was 86.1%.

As to `CS(=O)(=O)Nc1ccc(-c2ccc3c(c2)CCO3)c2ccccc12` [CBK083753], the viability at 28.5 h, 10 µM came out at 76.5%.

As for `COc1ccccc1NC(CC(=O)c1ccccc1)C(=O)O` (stereo not shown) [CBK287190], the viability at 28.5 h, 10 µM came out at 83.8%.

Regarding `CCSc1nc(N)c(NC(=O)c2ccco2)c(=O)[nH]1` [CBK287613], the viability at 28.5 h, 10 µM was determined as 92.4%.

With `CCN1CCN(Cc2c(C(C)C)[nH]c3ncccc23)CC1` [CBK285343], the viability at 28.5 h, 10 µM came to 83.6%.

Take `Cc1cc(=O)n2c3c(cc(S(=O)(=O)NCC4CCCO4)cc13)CC2` (stereo not shown) [CBK307595]: the viability at 28.5 h, 10 µM stood at 103%.

Take `CCCCC(c1cccnc1)N(C)C(=O)c1cc(C)c(CC)n(C)c1=O` (stereo not shown) [CBK306999]: the viability at 28.5 h, 10 µM was 88.5%.

As to `Cc1cc(SCC2=NNC(=O)C2)c(Cl)cc1Cl` [CBK067769], the viability at 28.5 h, 10 µM worked out at 92.8%.

For the compound `Cc1nc2nc(N)nn2c(C)c1CCC(=O)NCc1ccccc1F` [CBK305860], the viability at 28.5 h, 10 µM came to 77.6%.

Consider `CC(=O)Nc1ccc(OCC(O)Cn2cnc3ncccc3c2=O)cc1` (stereo not shown) [CBK304541], for which the viability at 28.5 h, 10 µM is 86.4%.

Regarding `CCOc1cccc(-c2cncc(NC(C)CCCC(C)(C)O)n2)c1` (stereo not shown) [CBK066020], the viability at 28.5 h, 10 µM turned out to be 95.6%.

Take `CCC1(C)CC(C(N)=S)CCO1` (stereo not shown) [CBK008954]: the viability at 28.5 h, 10 µM came to 97%.

In the case of `N#Cc1cn(S(=O)(=O)c2cccc(C(F)(F)F)c2)nc1N` [CBK067225], the viability at 28.5 h, 10 µM is 92.6%.

For `COc1ccc(C)cc1CC(=O)N(C)CCN1CCCCC1` [CBK282750], the viability at 28.5 h, 10 µM stood at 88.7%.

On to `Cn1c(SCC(=O)c2ccc(Cl)cc2)nnc1-c1cnccc1C(F)(F)F` [CBK067698], for which the viability at 28.5 h, 10 µM is 110%.

As for `COc1ccc([C@@]23CC[C@@H](NC(=O)Nc4cc(C)ccc4F)C[C@@H]2N(C)CC3)cc1OC` [CBK036509T], the viability at 28.5 h, 10 µM amounted to 102%.

As to `CN1CCC(N(C)C(=O)NCc2c(Cl)cccc2Cl)C1` (stereo not shown) [CBK156014], the viability at 28.5 h, 10 µM came out at 99%.

As to `O=C(O)c1cc(S(=O)(=O)N2CCCCC2)ccc1O` [CBK286595], the viability at 28.5 h, 10 µM came out at 89.6%.

As for `CCOC(=O)N1CCC(NS(=O)(=O)c2ccc(NC(C)=O)cc2)CC1` [CBK045470], the viability at 28.5 h, 10 µM is 97.8%.

As for `CC1Cc2cc(C(O)CN3CCC4CCCCC4C3)ccc2N1S(C)(=O)=O` (stereo not shown) [CBK286456], the viability at 28.5 h, 10 µM worked out at 116%.

As for `CN(C)C(=O)c1ccc(Cn2nc(NC(=O)OCc3ccccc3)c3ccccc32)cc1` [CBK048578], the viability at 28.5 h, 10 µM came to 89.6%.

On to `O=C(COc1ccc(Br)cc1C(=O)O)NCCc1ccccc1` [CBK286796], for which the viability at 28.5 h, 10 µM stood at 95.3%.

Take `CCc1nc(CC(=O)N2CCOC(c3ccc(F)cc3)C2)cs1` (stereo not shown) [CBK304083]: the viability at 28.5 h, 10 µM stood at 87%.

For `COCCNC(=O)CN(C)c1nc(-c2ccncc2)nc2ccccc12` [CBK305611], the viability at 28.5 h, 10 µM stood at 94.2%.

With `COc1ccc(CNC(=O)C2CCCN(c3nc4c(-c5ccc(C)cc5)csc4c(=O)[nH]3)C2)cc1` (stereo not shown) [CBK215530], the viability at 28.5 h, 10 µM came to 112%.

`Cc1ncc(CNC(=O)C2CC2)c(-c2cn(C)c3ccccc23)n1` [CBK283366]: the viability at 28.5 h, 10 µM worked out at 103%.

With `Cn1ncc(Cl)c1C1CCCCCN1C(=O)c1cccnc1` (stereo not shown) [CBK285146], the viability at 28.5 h, 10 µM is 108%.

With `O=C(O)c1cccc(NCN2C(=O)c3ccc([N+](=O)[O-])cc3C2=O)c1` [CBK261100], the viability at 28.5 h, 10 µM worked out at 96%.

`OC1(c2ccccn2)CCN(CCc2ccccc2)CC1` [CBK282904]: the viability at 28.5 h, 10 µM is 87.2%.

As to `Cc1cc(C)n(CC(=O)N2CCC(Nc3cccnn3)CC2)n1` [CBK306234], the viability at 28.5 h, 10 µM amounted to 106%.

As to `COc1ccc(OCCN2CCC(C(=O)c3ccc(F)cc3)CC2)cc1` [CBK149136], the viability at 28.5 h, 10 µM was found to be 104%.

With `N#Cc1ccc(C(=O)Nc2nnc(-c3ccccn3)o2)cc1` [CBK287428], the viability at 28.5 h, 10 µM stood at 100%.

For `Cc1ccc(C)c(OCCNCCN(C)C)c1Cl` [CBK267816C], the viability at 28.5 h, 10 µM amounted to 88.5%.
